Experimental data from patent publication US11814372B2, “Agonists of EPHA and their uses” (CASE WESTERN RESERVE UNIVERSITY, priority 2017, dated 2023).

Target: T1, EphA2 LBD (Homo sapiens, UniProt P29317)
T1 construct: fused on or other part: Minimal biotinylation for capture on Neutravidin (doxazosin run); amine coupling for the other compounds
Experiment: Surface Plasmon Resonance binding analysis
Conditions: SPR, recombinant LBD of EphA2; read-out: dissociation constant (KD)
Experimental: Binding analysis was carried out using standard biosensor chips and the […] Dual Channel SPR System (Reichert Life Sciences, Depew, N.Y.). The extracellular domain (ECD) of EphA2 was coupled to the chip by standard amine coupling using 1-ethyl-3-(3-dimethylaminopropyl) carbodiimide (EDC) and N-hydroxysuccinimide (NHS), followed by ethanolamine wash. In the case of doxazosin, Neutravidin was coupled to the chip, followed by ethanolamine wash and addition of minimally biotinylated EphA2 ECD to properly orient the protein. Different concentrations of dobutamine, labetalol, and doxazosin in running buffer (PBS, 0.05% Tween-20, 1% DMSO) were flown over the chip at a rate of […] and binding analyzed in real-time. After approximately 60 seconds, running buffer was flown over the chip to dissociate the compounds from the coupled protein (downward slope of curve). Binding data were analyzed and KD values determined using Clamp software (BioLogic Software Pty Ltd).

T1 sequence (P29317 28-206 limits assumed): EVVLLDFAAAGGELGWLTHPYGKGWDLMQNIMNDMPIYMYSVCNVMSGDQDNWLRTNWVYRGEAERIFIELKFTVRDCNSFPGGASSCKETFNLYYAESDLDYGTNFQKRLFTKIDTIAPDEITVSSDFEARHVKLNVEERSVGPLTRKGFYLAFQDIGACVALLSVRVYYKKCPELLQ

Kd [µM]	SMILES
440	CC(CCc1ccccc1)NCC(O)c1ccc(O)c(C(N)=O)c1 (centres unmarked) [labetalol]
1500	CC(CCc1ccc(O)cc1)NCCc1ccc(O)c(O)c1 (centres unmarked) [dobutamine]
